Measured values as given in PubChem BioAssay (NCI).
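Step 1: Grow cells in 96-well plates. Step 2: Expose to compound for 48 hours at 5 concentrations. Step 3: Interpolate endpoints linearly; if unreached, use highest concentration. Definition used: TGI = concentration required for complete inhibition of growth.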

Columns and labels:
Assay in all cases: inhibition of tumour cell growth, NCI panel, 48 h
PC-3 prostate = test system: PC-3 prostate
UACC-257 melanoma = test system: UACC-257 melanoma
SW-620 colon = test system: SW-620 colon
U251 CNS = test system: U251 CNS
KM12 colon = test system: KM12 colon
ACHN renal = test system: ACHN renal
HCT-116 colon = test system: HCT-116 colon
RPMI-8226 leukemia = test system: RPMI-8226 leukemia
LOX IMVI melanoma = test system: LOX IMVI melanoma
COLO 205 colon = test system: COLO 205 colon
NCI/ADR-RES ovarian = test system: NCI/ADR-RES ovarian
786-0 renal = test system: 786-0 renal
MDA-MB-231 breast = test system: MDA-MB-231 breast
OVCAR-3 ovarian = test system: OVCAR-3 ovarian
T-47D breast = test system: T-47D breast
SNB-19 CNS = test system: SNB-19 CNS
NCI-H522 lung = test system: NCI-H522 lung
SF-268 CNS = test system: SF-268 CNS
NCI-H23 lung = test system: NCI-H23 lung
SF-295 CNS = test system: SF-295 CNS
HOP-62 NSCLC = test system: HOP-62 NSCLC
SN12C renal = test system: SN12C renal
IGROV1 ovarian = test system: IGROV1 ovarian
CCRF-CEM leukemia = test system: CCRF-CEM leukemia
MALME-3M melanoma = test system: MALME-3M melanoma
MDA-N = test system: MDA-N
HCC-2998 colon = test system: HCC-2998 colon
NCI-H460 lung = test system: NCI-H460 lung
MCF7 breast = test system: MCF7 breast
OVCAR-4 ovarian = test system: OVCAR-4 ovarian
HOP-92 NSCLC = test system: HOP-92 NSCLC
HT29 colon = test system: HT29 colon
MOLT-4 leukemia = test system: MOLT-4 leukemia
CAKI-1 renal = test system: CAKI-1 renal
HCT-15 colon = test system: HCT-15 colon
UO-31 renal = test system: UO-31 renal
SK-OV-3 ovarian = test system: SK-OV-3 ovarian
TK-10 renal = test system: TK-10 renal
OVCAR-5 ovarian = test system: OVCAR-5 ovarian
SK-MEL-28 melanoma = test system: SK-MEL-28 melanoma
DU-145 prostate = test system: DU-145 prostate
HL-60(TB) leukemia = test system: HL-60(TB) leukemia
SK-MEL-5 melanoma = test system: SK-MEL-5 melanoma
UACC-62 melanoma = test system: UACC-62 melanoma
SK-MEL-2 melanoma = test system: SK-MEL-2 melanoma
EKVX NSCLC = test system: EKVX NSCLC
A549 NSCLC = test system: A549 NSCLC
K-562 leukemia = test system: K-562 leukemia
SR leukemia = test system: SR leukemia
OVCAR-8 ovarian = test system: OVCAR-8 ovarian

**Q.** What does the source list for `CC1(C)COC(c2cccc(C(=O)c3ccccc3)c2)=N1`?
**A.** TGI (PC-3 prostate): > 100 µM; TGI (UACC-257 melanoma): > 100 µM; TGI (SW-620 colon): > 100 µM; TGI (U251 CNS): > 100 µM; TGI (KM12 colon): > 100 µM; TGI (ACHN renal): > 100 µM; TGI (HCT-116 colon): > 100 µM; TGI (RPMI-8226 leukemia): > 100 µM; TGI (LOX IMVI melanoma): > 100 µM; TGI (COLO 205 colon): > 100 µM; TGI (NCI/ADR-RES ovarian): > 100 µM; TGI (786-0 renal): > 100 µM; TGI (MDA-MB-231 breast): > 100 µM; TGI (OVCAR-3 ovarian): > 100 µM; TGI (T-47D breast): > 100 µM; TGI (SNB-19 CNS): > 100 µM; TGI (NCI-H522 lung): 88.1 µM; TGI (SF-268 CNS): > 100 µM; TGI (NCI-H23 lung): > 100 µM; TGI (SF-295 CNS): > 100 µM; TGI (HOP-62 NSCLC): > 100 µM; TGI (SN12C renal): > 100 µM; TGI (IGROV1 ovarian): > 100 µM; TGI (CCRF-CEM leukemia): > 100 µM; TGI (MALME-3M melanoma): > 100 µM; TGI (MDA-N): > 100 µM; TGI (HCC-2998 colon): > 100 µM; TGI (NCI-H460 lung): > 100 µM; TGI (MCF7 breast): > 100 µM; TGI (OVCAR-4 ovarian): > 100 µM; TGI (HOP-92 NSCLC): > 100 µM; TGI (HT29 colon): > 100 µM; TGI (MOLT-4 leukemia): 75.9 µM; TGI (CAKI-1 renal): > 100 µM; TGI (HCT-15 colon): > 100 µM; TGI (UO-31 renal): > 100 µM; TGI (SK-OV-3 ovarian): > 100 µM; TGI (TK-10 renal): > 100 µM; TGI (OVCAR-5 ovarian): > 100 µM; TGI (SK-MEL-28 melanoma): > 100 µM; TGI (DU-145 prostate): > 100 µM; TGI (HL-60(TB) leukemia): 58 µM; TGI (SK-MEL-5 melanoma): 32.1 µM; TGI (UACC-62 melanoma): > 100 µM; TGI (SK-MEL-2 melanoma): > 100 µM; TGI (EKVX NSCLC): > 100 µM; TGI (A549 NSCLC): > 100 µM; TGI (K-562 leukemia): > 100 µM; TGI (SR leukemia): > 100 µM; TGI (OVCAR-8 ovarian): > 100 µM
